This test deals with Bromodomain-containing protein 4 (Homo sapiens) (UniProt O60885). As to the kind of experiment: Induction of degradation of BRD4 in human MDA-MB-468 cells at 0.01 uM measured after 24 to 48 hrs by densitometry analysis relative to control. The settings on record: time lower […], time upper […]. Type of test: cell-based.

Each structure is given as a SMILES string.

`Cc1sc2c(c1C)C(c1ccc(Cl)cc1)=N[C@@H](CC(=O)NCC(=O)NCCn1nnc(COc3ccc(Cl)c4c3[C@@H](CN3CC5(CC5)CC3=O)N(C(=O)[C@@H]3CCCC[C@]3(C)C(=O)O)CC4)c1C)c1nnc(C)n1-2`: the Activity is 75%.

Values taken from ChEMBL document CHEMBL5357080, “Redefining Neurodegenerative Treatment: Synergy of KEAP1, PROTACs, and Inflammatory Modulators” (ACS Med Chem Lett, 2024).
